pIC50: −log10 of the molar value.
Assays:
RAT 5-LIPOXYGENASE = biological target: T1, RAT 5-LIPOXYGENASE (Rattus norvegicus, UniProt P12527); experiment: Biosynthesis of 5-HETE by rat polymorphonuclear leukocytes in vitro (inhibition of rat 5-lipoxygenase); assay type: cell-based; conditions: rat neutrophils, A23187, 3 minutes at 30° C.; for pIC50: concentration at which 50% inhibition is observed, read-out: INHIBITION OF RAT 5-LIPOXYGENASE, I50
T1 construct: A suspension of rat neutrophils in buffer; endogenous in cells; host or cells: rat neutrophils (polymorphonuclear leukocytes)
T1 sequence (P12527 1-673): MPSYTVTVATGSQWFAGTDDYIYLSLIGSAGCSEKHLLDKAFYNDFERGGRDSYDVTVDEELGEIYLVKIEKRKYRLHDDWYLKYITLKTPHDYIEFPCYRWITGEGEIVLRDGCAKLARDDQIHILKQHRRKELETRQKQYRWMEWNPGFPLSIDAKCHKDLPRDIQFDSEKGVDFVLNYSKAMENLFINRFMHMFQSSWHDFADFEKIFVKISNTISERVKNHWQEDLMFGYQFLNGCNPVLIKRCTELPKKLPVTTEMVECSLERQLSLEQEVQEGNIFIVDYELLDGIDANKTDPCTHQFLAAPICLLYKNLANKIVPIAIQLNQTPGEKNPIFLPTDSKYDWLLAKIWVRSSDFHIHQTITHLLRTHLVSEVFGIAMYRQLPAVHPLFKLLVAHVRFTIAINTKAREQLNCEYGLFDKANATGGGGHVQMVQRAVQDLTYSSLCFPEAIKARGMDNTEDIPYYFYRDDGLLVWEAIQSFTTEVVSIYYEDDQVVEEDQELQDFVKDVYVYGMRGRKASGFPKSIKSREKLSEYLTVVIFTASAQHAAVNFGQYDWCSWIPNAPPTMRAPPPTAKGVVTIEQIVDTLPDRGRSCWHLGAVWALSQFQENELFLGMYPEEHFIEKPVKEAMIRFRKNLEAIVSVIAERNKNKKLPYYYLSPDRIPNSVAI
Procedure: Protocol for the Biosynthesis of 5-HETE by Rat Polymorphonuclear Leukocytes In Vitro
A suspension of rat neutrophils in buffer is incubated for 3 minutes at 30° C. with [^14 C]-arachidonic acid (AA) and calcium ionophore A23187. Citric Acid (2M) NDGA (10 mM) is used to quench the reaction. Following the addition of a trace amount of (^3 H)-5-HETE together with an excess of unlabeled 5-HETE to each tube, the mixture is extracted with chloroform/methanol. The organic layer is washed with dilute acid and an aliquot is transferred to glass tubes and dried. The residue is dissolved in a small volume of chloroform and an aliquot is spotted on silica gel TLC sheets, which are developed with an ethyl acetate/isoctane/water/acetic acid solvent system. The 5-HETE spots are visualized under UV light, cut out and placed in scintillation vials for counting. After adjusting for the extraction efficiency, the amount (pmole) of [^14 C]-5-HETE in each of the tubes is quantitated. The net pmoles of 5-HETE are obtained by subtracting the pmoles of 5-HETE in the tubes containing buffer alone (blank) from the pmoles of 5-HETE in the tubes containing […]. The ability of the test compounds to modulate the activity of this enzyme is determined by a decrease or increase in the net amount of 5-HETE produced.
(§1) If the percentage of inhibition exceeds 50%, the compounds are then evaluated in terms of response over a range of concentrations. From a plot of response against concentration, the I50 value is obtained. The I50 value is the concentration at which 50% inhibition is observed.

LTC4 = experiment: Antagonism of leukotriene C4 binding (guinea pig peripheral lung strips, contraction); assay type: cell-based; conditions: Cavia porcellus, leukotriene C4 usually 0.2 nM, 37° C., read-out: ANTAGONISM OF LTC4 BINDING, I50
Procedure: Protocol for Antagonism of Leukotrines C-4 Binding
Peripheral strips of guinea pig lungs are prepared and hung in tissue baths according to the procedure described by Drazen et al. (Proc. Nat'l. Acad. Sci., U.S.A. 77, 4354-4358, 1980). Male guinea pigs (Charles River, 250-400 g) are sacrificed by cervical dislocation and their lungs rapidly removed. The individual lobes are dissected free and rinsed in Assay Buffer (118 mM NaCl, 5.4 mM KCl, 2.5 mM CaCl2, 25 mM […], 1 mM MgSO4, 1 mM NaH2 PO4, 11 mM glucose) which is continuously aerated with 95% oxygen/5% carbon dioxide. After the lobes are extensively rinsed, a strip of lung tissue, approximately 2 mm thick and 5-8 cm long, is cut off the sharpest and most peripheral portion of each lobe. The peripheral edge is cut almost completely around the outside of the lobe so that a U-shaped strip is obtained. These strips are rinsed in Assay Buffer and then connected with surgical silk thread to the support rods of the water jacketed tissue baths (10 ml chambers). The other ends of the strips are connected to Gould UC3 pressure transducers which had been previously calibrated. The tissue baths are aerated with 95% oxygen/5% carbon dioxide and maintained at 37° C. The tension on these strips are adjusted to 500 mg. The tissues are initially washed with fresh buffer every 5-10 minutes for about 30 minutes and thereafter washed with fresh assay buffer at least every 20 minutes.
After the tissue had been repeatedly washed and allowed to equilibrate in the tissue baths, they are challenged with 1 μM histamine to standardize the contractions for each tissue.
Responses of each tissue to a predetermined concentration (usually 0.2 nM) of leukotriene C4 are then obtained. Compounds are then tested for their ability to antagonize to leukotriene C4 immediately upon challenge.
as §1

inhibition at 10 µM (RAT 5-LIPOXYGENASE) | pIC50 (RAT 5-LIPOXYGENASE) | pIC50 (LTC4) | Structure (SMILES)
34% |  | 4.82 | C=CCOc1ccc(C(=O)N[C@@H](Cc2ccccc2)C(=O)OC)cc1Cl [4-Allyloxy-3-chlorobenzoyl-L-phenylalanine methyl ester]
25% |  | 5.05 | C=CCOc1ccc(CC(=O)NC(Cc2ccc(Cl)cc2)C(=O)OC)cc1Cl (racemic) [4-Allyloxy-3-chlorophenylacetyl-DL-p-chlorophenylalanine methyl ester]
 | 5.42 |  | COC(=O)[C@@H](Cc1ccccc1)NC(=O)Cc1ccc(OC)c(Cl)c1 [3-Chloro-4-methoxyphenylacetyl-D-phenylalanine methyl ester]
27% |  | 5.30 | C=CCOc1ccc(CC(=O)N[C@@H](Cc2ccccc2)C(=O)OC)cc1Cl [4-Allyloxy-3-chlorophenylacetyl-L-phenylalanine methyl ester]
33% |  | 5.52 | C=CCOc1ccc(CC(=O)N[C@H](CO)Cc2ccccc2)cc1Cl [N--[4-Allyloxy-3-chlorophenylacetyl]-L-phenylalaninol]
36% |  |  | C=CCOc1ccc(CC(=O)NC(CO)C(O)c2ccccc2)cc1Cl [N--[4-Allyloxy-3-chlorophenylacetyl]-3S-hydroxy-L-phenylalaninol]
 | 6.15 | 5.05 | C=CCOc1ccc(CC(=O)N[C@H](Cc2ccccc2)C(=O)OC)cc1Cl [4-Allyloxy-3-chlorophenylacetyl-D-phenylalanine methyl ester]
18% |  | 5.60 | C=CCOc1ccc(CC(=O)NCC(C)c2ccccc2)cc1Cl (centres unmarked) [N--[4-Allyloxy-3-chlorophenylacetyl]-1-amino-2-phenylpropane]
50% |  |  | COC(=O)[C@@H](Cc1ccccc1)NC(=O)Cc1ccc(OCc2ccc3ccccc3n2)c(Cl)c1 [1-Chloro-4-[2-quinolinemethyloxy]-phenylacetyl-D-phenylalanine methyl ester]

Further lines, the compound ahead of its results:

Structure (SMILES) | inhibition at 10 µM (RAT 5-LIPOXYGENASE) | pIC50 (RAT 5-LIPOXYGENASE) | pIC50 (LTC4)
C=CCOc1ccc(CC(=O)N(CCO)Cc2ccccc2)cc1Cl [N--benzyl, N--[2-hydroxyethyl]-3-chloro-4-allyloxyphenylacetamide] | 41% |  | 
C=CCOc1ccc(CC(=O)N(C)[C@H](C)[C@@H](O)c2ccccc2)cc1Cl [4-Allyloxy-3-chlorophenylacetyl-(+)-ephedrine] |  | 4.82 | 
C=CCOc1ccc(CC(=O)N(C)[C@@H](C)[C@H](O)c2ccccc2)cc1Cl [4-Allyloxy-3-chlorophenylacetyl-(-)-ephedrine] |  | 4.52 | 
C=CCOc1ccc(CC(=O)N(C)CC(O)c2ccccc2)cc1Cl (centres unmarked) [N--[4-Allyloxy-3-chlorophenylacetyl]-N--methyl-2-hydroxy-2-phenylethylamine] |  | 5.74 | 4.74
COC(=O)[C@H](Cc1ccccc1)NC(=O)c1ccc(OC2C=CCCC2)cc1 (stereo partly drawn) [4-[2-Cyclohexenyloxy]-benzoyl-L-phenylalanine methyl ester] | 33% |  | 
C=CCOc1ccc(CC(=O)N(CC(=O)OCC)Cc2ccccc2)cc1Cl [4-Allyloxy-3-chlorophenylacetyl-N--benzylglycine ethyl ester] |  | 5.10 | 4.70
C=CCOc1ccc(CC(=O)N(C)Cc2ccccc2)cc1Cl [N--benzyl, N--methyl-3-chloro-4-allyloxy-phenylacetamide] |  | 4.70 | 
COc1ccc(CC(=O)N(C)CCc2ccccc2)cc1Cl [N--[3-Chloro-4-methoxyphenylacetyl]-N--methyl-2-phenylethylamine] | 33% |  | 
C=CCOc1ccc(CC(=O)NCC(O)c2ccccc2)cc1Cl (centres unmarked) [N--[4-Allyloxy-3-chlorophenylacetyl]-2-hydroxy-2-phenylethylamine] |  | 4.70 | 
COC(=O)[C@H](Cc1ccccc1)NC(=O)Cc1ccc(OCc2ccccc2)cc1 [4-Benzyloxyphenylacetyl-L-phenylalanine methyl ester] | 29% |  | 5.30
O=C(Cc1ccc(OCc2ccccc2)c(Cl)c1)N[C@H](Cc1ccccc1)C(=O)O [4-Benzyloxy-3-chlorophenylacetyl-D-phenylalanine] | 40% |  | 

Source: patent US4579866A, “Phenylacetamides as anti-allergy, anti-asthma and anti-inflammatory agents” (USV Pharmaceutical Corp., priority 1984, dated 1986)
